Measurements as given in PubChem BioAssay (NCI).
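Interpolation was linear, between the two tested concentrations surrounding the appropriate level; five concentrations were tested over 48 hours in 96-well plates. GI50: concentration for 50% inhibition of growth. Definition used: TGI = concentration required for complete inhibition of growth.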

Experiments:
Test in all cases: NCI-60 cell line screen, 48 h; in the data active = GI50 below about 0.43 µM; inactive = the rest
OVCAR-5 ovarian = system: OVCAR-5 ovarian
M14 melanoma = system: M14 melanoma
NCI/ADR-RES ovarian = system: NCI/ADR-RES ovarian
MCF7 breast = system: MCF7 breast
MDA-MB-231 breast = system: MDA-MB-231 breast
CCRF-CEM leukemia = system: CCRF-CEM leukemia
NCI-H23 lung = system: NCI-H23 lung
SR leukemia = system: SR leukemia
SW-620 colon = system: SW-620 colon
A498 renal = system: A498 renal
SK-MEL-5 melanoma = system: SK-MEL-5 melanoma
BT-549 breast = system: BT-549 breast
NCI-H460 lung = system: NCI-H460 lung
HOP-92 NSCLC = system: HOP-92 NSCLC
HS 578T breast = system: HS 578T breast
SNB-75 CNS = system: SNB-75 CNS
IGROV1 ovarian = system: IGROV1 ovarian
U251 CNS = system: U251 CNS
EKVX NSCLC = system: EKVX NSCLC
CAKI-1 renal = system: CAKI-1 renal
UO-31 renal = system: UO-31 renal
NCI-H522 lung = system: NCI-H522 lung
OVCAR-3 ovarian = system: OVCAR-3 ovarian
RXF 393 renal = system: RXF 393 renal
PC-3 prostate = system: PC-3 prostate
HT29 colon = system: HT29 colon
LOX IMVI melanoma = system: LOX IMVI melanoma
SN12C renal = system: SN12C renal
SK-MEL-28 melanoma = system: SK-MEL-28 melanoma
T-47D breast = system: T-47D breast
SK-MEL-2 melanoma = system: SK-MEL-2 melanoma
OVCAR-4 ovarian = system: OVCAR-4 ovarian
OVCAR-8 ovarian = system: OVCAR-8 ovarian
DU-145 prostate = system: DU-145 prostate
HL-60(TB) leukemia = system: HL-60(TB) leukemia
RPMI-8226 leukemia = system: RPMI-8226 leukemia
ACHN renal = system: ACHN renal
MALME-3M melanoma = system: MALME-3M melanoma
TK-10 renal = system: TK-10 renal
COLO 205 colon = system: COLO 205 colon
HCT-15 colon = system: HCT-15 colon
SF-539 CNS = system: SF-539 CNS
MDA-MB-435 = system: MDA-MB-435
UACC-257 melanoma = system: UACC-257 melanoma
SNB-19 CNS = system: SNB-19 CNS
MDA-N = system: MDA-N
HCC-2998 colon = system: HCC-2998 colon
K-562 leukemia = system: K-562 leukemia
KM12 colon = system: KM12 colon
SF-268 CNS = system: SF-268 CNS
A549 NSCLC = system: A549 NSCLC
HOP-62 NSCLC = system: HOP-62 NSCLC
UACC-62 melanoma = system: UACC-62 melanoma
MOLT-4 leukemia = system: MOLT-4 leukemia
HCT-116 colon = system: HCT-116 colon
NCI-H226 lung = system: NCI-H226 lung
SK-OV-3 ovarian = system: SK-OV-3 ovarian
SF-295 CNS = system: SF-295 CNS
786-0 renal = system: 786-0 renal

COC(=O)/C=C\n1nc(Br)c(=O)[nH]c1=O
> 100 µM: TGI (OVCAR-5 ovarian) | TGI (M14 melanoma) | TGI (NCI/ADR-RES ovarian) | TGI (MCF7 breast) | TGI (MDA-MB-231 breast) | TGI (CCRF-CEM leukemia) | TGI (NCI-H23 lung) | TGI (SR leukemia) | TGI (SW-620 colon) | TGI (A498 renal) | TGI (SK-MEL-5 melanoma) | TGI (BT-549 breast) | TGI (NCI-H460 lung) | TGI (HOP-92 NSCLC) | TGI (HS 578T breast) | TGI (SNB-75 CNS) | TGI (IGROV1 ovarian) | TGI (U251 CNS) | TGI (EKVX NSCLC) | TGI (CAKI-1 renal) | TGI (UO-31 renal) | TGI (NCI-H522 lung) | TGI (OVCAR-3 ovarian) | TGI (RXF 393 renal) | TGI (PC-3 prostate) | TGI (HT29 colon) | TGI (LOX IMVI melanoma) | TGI (SN12C renal) | TGI (SK-MEL-28 melanoma) | TGI (T-47D breast) | TGI (SK-MEL-2 melanoma) | TGI (OVCAR-4 ovarian) | TGI (OVCAR-8 ovarian) | TGI (DU-145 prostate) | TGI (HL-60(TB) leukemia) | TGI (RPMI-8226 leukemia) | TGI (ACHN renal) | TGI (MALME-3M melanoma) | TGI (TK-10 renal) | TGI (COLO 205 colon) | TGI (HCT-15 colon) | TGI (SF-539 CNS) | TGI (MDA-MB-435) | TGI (UACC-257 melanoma) | TGI (SNB-19 CNS) | TGI (MDA-N) | TGI (HCC-2998 colon) | TGI (K-562 leukemia) | TGI (KM12 colon) | TGI (SF-268 CNS) | TGI (A549 NSCLC) | TGI (HOP-62 NSCLC)

O=C1C=C(N2CCN(c3ncccn3)CC2)C(=O)c2c(O)ccc(O)c21
31.3 µM: TGI (MDA-N)
46.6 µM: TGI (MALME-3M melanoma)
> 100 µM: TGI (OVCAR-5 ovarian) | TGI (M14 melanoma) | TGI (NCI/ADR-RES ovarian) | TGI (UACC-62 melanoma) | TGI (MOLT-4 leukemia) | TGI (MCF7 breast) | TGI (HCT-116 colon) | TGI (MDA-MB-231 breast) | TGI (CCRF-CEM leukemia) | TGI (NCI-H23 lung) | TGI (SR leukemia) | TGI (SW-620 colon) | TGI (A498 renal) | TGI (NCI-H226 lung) | TGI (SK-MEL-5 melanoma) | TGI (BT-549 breast) | TGI (NCI-H460 lung) | TGI (HOP-92 NSCLC) | TGI (HS 578T breast) | TGI (SK-OV-3 ovarian) | TGI (IGROV1 ovarian) | TGI (U251 CNS) | TGI (EKVX NSCLC) | TGI (CAKI-1 renal) | TGI (UO-31 renal) | TGI (NCI-H522 lung) | TGI (SF-295 CNS) | TGI (OVCAR-3 ovarian) | TGI (PC-3 prostate) | TGI (HT29 colon) | TGI (LOX IMVI melanoma) | TGI (SN12C renal) | TGI (SK-MEL-28 melanoma) | TGI (T-47D breast) | TGI (OVCAR-4 ovarian) | TGI (OVCAR-8 ovarian) | TGI (DU-145 prostate) | TGI (HL-60(TB) leukemia) | TGI (786-0 renal) | TGI (ACHN renal) | TGI (TK-10 renal) | TGI (COLO 205 colon) | TGI (HCT-15 colon) | TGI (UACC-257 melanoma) | TGI (SNB-19 CNS) | TGI (HCC-2998 colon) | TGI (K-562 leukemia) | TGI (KM12 colon) | TGI (SF-268 CNS) | TGI (A549 NSCLC) | TGI (HOP-62 NSCLC)
55.7 µM: TGI (SF-539 CNS)
24.3 µM: TGI (MDA-MB-435)

COc1cc(Cl)c(CC(=O)c2c[nH]c3ccccc23)cc1OC
31.5 µM: TGI (SNB-75 CNS)
> 74 µM: TGI (TK-10 renal)
40.9 µM: TGI (RXF 393 renal)
> 52.6 µM: TGI (MDA-MB-231 breast)
> 43.3 µM: TGI (UO-31 renal)
> 59.4 µM: TGI (A498 renal)
45.1 µM: TGI (NCI-H226 lung)
> 68.3 µM: TGI (SF-295 CNS)
> 95 µM: TGI (SNB-19 CNS)
19.4 µM: TGI (SF-539 CNS)
15.6 µM: TGI (HOP-92 NSCLC)
> 100 µM: TGI (OVCAR-5 ovarian) | TGI (M14 melanoma) | TGI (NCI/ADR-RES ovarian) | TGI (UACC-62 melanoma) | TGI (MOLT-4 leukemia) | TGI (MCF7 breast) | TGI (HCT-116 colon) | TGI (NCI-H23 lung) | TGI (SR leukemia) | TGI (SW-620 colon) | TGI (SK-MEL-5 melanoma) | TGI (BT-549 breast) | TGI (NCI-H460 lung) | TGI (HS 578T breast) | TGI (IGROV1 ovarian) | TGI (EKVX NSCLC) | TGI (CAKI-1 renal) | TGI (OVCAR-3 ovarian) | TGI (PC-3 prostate) | TGI (HT29 colon) | TGI (LOX IMVI melanoma) | TGI (SN12C renal) | TGI (SK-MEL-28 melanoma) | TGI (T-47D breast) | TGI (SK-MEL-2 melanoma) | TGI (OVCAR-4 ovarian) | TGI (OVCAR-8 ovarian) | TGI (DU-145 prostate) | TGI (RPMI-8226 leukemia) | TGI (786-0 renal) | TGI (ACHN renal) | TGI (MALME-3M melanoma) | TGI (COLO 205 colon) | TGI (HCT-15 colon) | TGI (MDA-MB-435) | TGI (UACC-257 melanoma) | TGI (MDA-N) | TGI (K-562 leukemia) | TGI (KM12 colon) | TGI (SF-268 CNS) | TGI (A549 NSCLC)
28.7 µM: TGI (HOP-62 NSCLC)
44.4 µM: TGI (U251 CNS)
> 57.5 µM: TGI (CCRF-CEM leukemia)
> 67.3 µM: TGI (HL-60(TB) leukemia)
40 µM: TGI (SK-OV-3 ovarian)

COc1cc2c3c(n(C)c(=O)c2cc1OC)-c1cc2c(cc1/C3=C\CCCCCBr)OCO2
52.4 µM: TGI (NCI-H522 lung)
38.7 µM: TGI (HOP-92 NSCLC)
13.7 µM: TGI (LOX IMVI melanoma)
inactive: GI50 (UACC-62 melanoma) 3.87 µM | GI50 (HCT-116 colon) 6.14 µM | GI50 (DU-145 prostate) 5.54 µM | GI50 (SF-539 CNS) 5.7 µM | GI50 (MDA-MB-435) 19.2 µM | GI50 (HOP-62 NSCLC) 3.09 µM
46 µM: TGI (A498 renal)
7.92 µM: TGI (T-47D breast)
38.3 µM: TGI (CCRF-CEM leukemia)
3.24 µM: TGI (SK-MEL-28 melanoma)
26 µM: TGI (RPMI-8226 leukemia)
41.7 µM: TGI (ACHN renal)
20.7 µM: TGI (SK-MEL-5 melanoma)
> 100 µM: TGI (OVCAR-5 ovarian) | TGI (M14 melanoma) | TGI (NCI/ADR-RES ovarian) | TGI (MCF7 breast) | TGI (MDA-MB-231 breast) | TGI (NCI-H23 lung) | TGI (SW-620 colon) | TGI (BT-549 breast) | TGI (HS 578T breast) | TGI (EKVX NSCLC) | TGI (CAKI-1 renal) | TGI (SF-295 CNS) | TGI (PC-3 prostate) | TGI (HT29 colon) | TGI (SN12C renal) | TGI (SK-MEL-2 melanoma) | TGI (OVCAR-4 ovarian) | TGI (OVCAR-8 ovarian) | TGI (DU-145 prostate) | TGI (786-0 renal) | TGI (COLO 205 colon) | TGI (HCT-15 colon) | TGI (MDA-MB-435) | TGI (UACC-257 melanoma) | TGI (SNB-19 CNS) | TGI (MDA-N) | TGI (KM12 colon) | TGI (SF-268 CNS) | TGI (A549 NSCLC)
89.8 µM: TGI (SF-539 CNS)
0.605 µM: TGI (IGROV1 ovarian)
29 µM: TGI (UACC-62 melanoma)
24.1 µM: TGI (U251 CNS)
14.1 µM: TGI (SR leukemia)
69.8 µM: TGI (NCI-H460 lung)
79.3 µM: TGI (SK-OV-3 ovarian)
43 µM: TGI (SNB-75 CNS)
20.3 µM: TGI (HL-60(TB) leukemia)
30.2 µM: TGI (K-562 leukemia)
55.8 µM: TGI (TK-10 renal)
44.7 µM: TGI (HCT-116 colon)
10.5 µM: TGI (MOLT-4 leukemia)
25.1 µM: TGI (HOP-62 NSCLC)
47.8 µM: TGI (UO-31 renal)
